Tested on: stored potato tubers (Solanum tuberosum, variety: Columbia)
Assay: Visual assessment of sprout development on stored potato tubers after spray application on a roller table
Type: in vivo
Experimental: Application was done on a roller table and were applied with a spray application covering the outside of the tubers homogeneously with the spray solution containing with the respective dose of compound of formula (I) and depending on the treatment with the additional MSO (methylated seed oil) as indicated in the following tables. The spray solutions were prepared to match an equivalent of 10 L water per ton potato.

## C=C[C@]1(C(=O)N[C@H]2CO[C@@H](C(=O)OC)C2)CC(c2cc(F)cc(F)c2)=NO1 (relative stereo) [compound of formula (I), methyl(2R*,4R*)-4-[[(5S)-3-(3,5-difluorophenyl)-5-vinyl-4H-isoxazole-5-carbonyl]amino]tetrahydrofuran-2-carboxylate]
0.2 g/to, MSO 0.5 L/to, SC 200, 0 DAA
  Relative inhibition of potato sprouting: 0%
0.2 g/to, MSO 0.5 L/to, SC 200, 71 DAA
  Relative inhibition of potato sprouting: 67%
2 g/to, MSO 0.5 L/to, SC 200, 0 DAA
  Relative inhibition of potato sprouting: 0%
2 g/to, MSO 0.5 L/to, SC 200, 71 DAA
  Relative inhibition of potato sprouting: 73%
2 g/to, no MSO, SC 200, 0 DAA
  Relative inhibition of potato sprouting: 0%
2 g/to, no MSO, SC 200, 28 DAA
  Relative inhibition of potato sprouting: 30%
2 g/to, no MSO, SC 200, 71 DAA
  Relative inhibition of potato sprouting: 18%
20 g/to, MSO 0.5 L/to, SC 200, 0 DAA
  Relative inhibition of potato sprouting: 0%
20 g/to, MSO 0.5 L/to, SC 200, 71 DAA
  Relative inhibition of potato sprouting: 93%
20 g/to, no MSO, SC 200, 0 DAA
  Relative inhibition of potato sprouting: 0%
20 g/to, no MSO, SC 200, 28 DAA
  Relative inhibition of potato sprouting: 45%
20 g/to, no MSO, SC 200, 71 DAA
  Relative inhibition of potato sprouting: 30%
200 g/to, MSO 0.5 L/to, SC 200, 0 DAA
  Relative inhibition of potato sprouting: 0%
200 g/to, MSO 0.5 L/to, SC 200, 71 DAA
  Relative inhibition of potato sprouting: 95%

Reference: patent US20250057164A1, “USE OF ISOXAZOLINECARBOXAMIDE FOR SPROUT INHIBITION” (BAYER AKTIENGESELLSCHAFT, priority 2021, published 2025)
